Assay results from patent publication US9018173B2, “Materials and methods for suppressing inflammatory and neuropathic pain” (Indiana University Research and Technology Corp., priority 2010, dated 2015).
Residues, ends and D or L forms follow the SMILES beside them. No end group written: not given here.

Key:
[1] = system: anxiety-associated behavior; test: Elevated plus maze (EPM); type: in vivo, C57BL6 mice
[2] = system: depression/despair-associated behavior; test: Tail suspension test (TST); type: in vivo, C57BL6 mice
Method: The light-dark box test and the elevated plus maze were used as measures of anxiety-associated behaviors. The tail suspension test was performed to evaluate despair- and depression-associated behavior.
Depression/Despair-behavior testing. Since rodents such as mice and rats display immobile postures when placed in inescapable stressful situations, immobility behavior in the tail suspension test (TST) or forced swim test (FST) is used as a measure of “depression” or “despair”-associated behavior. Furthermore, administering antidepressant treatments prior to testing reduces immobility behavior. Therefore TST and FST are often used to screen novel drugs for depressant or anti-depressant properties.
Tail suspension test as a measure of depression-associated behavior. Immediately following the EPM test, the TST was conducted according to standard procedure between 8:00 AM and 2:00 PM. Cryan, J. F., Mombereau, C., & Vassout, A. The tail suspension test as a model for assessing antidepressant activity: review of pharmacological and genetic studies in mice. Neurosci. Biobehay. Rev. 29, 571-625 (2005). Briefly, each mouse was suspended by the tail at a height of 40 cm by taping the rail to a horizontal bar so that the tail is vertical to the bar. Behavior was video recorded for 5 min and later analyzed by an experimenter, whom was blind to the treatments. […] If a mouse climbed its tail the mouse was gently pulled back down and the trial continued. Mice that climbed their tails for more than 20% of the trial (i.e. >60 seconds) were eliminated from the final analysis. Duration and frequency of immobility was the main parameters measured. Mice injected with the scrambled control peptide were immobile approximately 26% of the TST duration which is equivalent to baseline immobility durations (approximately 27%) observed in C57B16 mice in another recent study.

[3] = system: anxiety-associated behavior; test: Light-Dark Box test (LDBT); type: in vivo, C57BL6 mice
Method: The light-dark box test and the elevated plus maze were used as measures of anxiety-associated behaviors. The tail suspension test was performed to evaluate despair- and depression-associated behavior. Anxiety-behavior testing Anxiety occurs when there is conflict between risk and reward. The Light-Dark Box test (LDBT) and the elevated plus maze (EPM) are accepted tests of anxiety-associated behavior that assess the conflict mice have against hiding in enclosed dark areas (i.e., dark box or closed arm) and their tendency to explore novel environments (i.e., white box or open arm). Lalonde, R. & Strazielle, C. […] J. Neurosci. Methods. 171, 48-52 (2008). These tests are also sensitive to anxiolytic drug treatments. Light-Dark Box test as a measure of anxiety-associated behavior. For the light-dark box test (LDBT), there were two adjoined light and dark compartments boxes with a 7 cm square opening to allow mice to move between them. The black box was covered (20 cm×40 cm×30 cm height) and the white box (20 cm×40 cm×30 cm height) was open and illuminated (40 W). Each mouse was placed into the white compartment and the white compartment was video recorded for later analyses using ANY-maze software (version 4.75, Stoelting, Wood Dale, Ill.) which is a video tracking system designed to automate testing in behavioral experiments. The main parameters were duration of time spent in the light box; the latency to enter the dark box; and the number of transitions between the light and dark box.

[4] = Biodistribution after i.p. injection (dot blot, FITC fluorescence); details: 25 mg/kg i.p.
[5] = system: capsaicin-induced meningeal blood flow changes
[6] = C57BL6 mice, 10 mg/kg i.p., 1 h after injection, 5 min test

With CC[C@H](C)[C@H](NC(=O)[C@@H](NC(=O)[C@H](CC(C)C)NC(=O)[C@H](C)NC(=O)[C@H](CCC(=O)O)NC(=O)[C@H](Cc1ccccc1)NC(=O)[C@H](Cc1ccc(O)cc1)NC(=O)[C@H](CC(C)C)NC(=O)[C@H](CCSC)NC(=O)[C@H](CCC(=O)O)NC(=O)[C@H](CCCCN)NC(=O)[C@H](C)NC(=O)[C@H](CCC(=O)O)NC(=O)[C@H](Cc1c[nH]c2ccccc12)NC(=O)[C@H](CCCNC(=N)N)NC(=O)[C@H](CCCNC(=N)N)NC(=O)[C@H](CCCNC(=N)N)NC(=O)[C@H](CCC(N)=O)NC(=O)[C@H](CCCNC(=N)N)NC(=O)[C@H](CCCNC(=N)N)NC(=O)[C@H](CCCCN)NC(=O)[C@H](CCCCN)NC(=O)[C@H](CCCNC(=N)N)NC(=O)CNC(=O)[C@@H](N)Cc1ccc(O)cc1)C(C)C)C(=O)N[C@@H](CCC(=O)O)C(=O)O [TAT-Scramble, reference compound] (H-YGRKKRRQRRRWEAKEMLYFEALVIE-OH; N-terminus and C-terminus assumed) the “EPM time in the open arm compared to the closed arm” value ([1]; 10 mg/kg) was “approximately 30%”, the “Elevated Plus Maze: Closed arm entries” value [1, 6] was 16.3 ± 2.0 and the “Elevated Plus Maze: Closed arm latency to enter” value [1, 6] was 6.3 ± 2.5 s. For the same compound, the “Elevated Plus Maze: Closed arm latency to exit” value [1, 6] was 14.7 ± 3.0 s, the “Elevated Plus Maze: Open arm entries” value [1, 6] was 11.5 ± 1.6 and the “Elevated Plus Maze: Open arm latency to enter” value [1, 6] was 5.9 ± 2.3 s. The “Elevated Plus Maze: Open arm latency to exit” value [1, 6] was 14.5 ± 3.1 s, the “Tail Suspension Test: Active” value [2, 6] was 221.0 ± 11.3 s and the “TST immobility as share of test duration” value ([2]; mouse, in vivo) was “approximately 26%”. For the same compound, the “Light-Dark Box: Dark box latency to exit” value [3, 6] was 53.0 ± 11.5 s, the “Light-Dark Box: Light box entries” value [3, 6] was 8.2 ± 0.8 and the “LDBT time in the light box” value ([3]; mouse, in vivo) was “approximately 25%”. The “tissue distribution (dot blot, anti-TAT antibody)” value ([4]; 15 min post-injection) was “detected in spleen and largely concentrated in lumbar dorsal root ganglion (DRG) and lumbar section of the spinal cord” and the “tissue distribution (dot blot, anti-TAT antibody)” value ([4]; 1 h post-injection) was “also detected in kidney, brain, spinal cord and was abundant in the DRG”.
For “CGRP8-37: CGRP antagonist (VTHRLAGLLSRSGGVVKNNFVPTNVGSKAF; ends and bridges not checked; UniProt P06881 90-119, looked up, fragment)”, the “capsaicin-induced blood flow changes (effect in words)” value ([5]; dural application prior to nasal capsaicin 100 nM) was “blocked” and the “capsaicin-induced blood flow change after CGRP antagonist” value ([5]; prior topical administration, n=3) was 5±4%.
